Results taken from patent publication US5599808A, “Aqueous indolocarbazole solutions” (Cephalon, Inc., priority 1995, dated 1997).
In brackets after ≈: the same amount, converted by molar mass.

Columns and labels:
[1] = Concentration of dissolved indolocarbazole obtained in aqueous solutions (HPLC); conditions: organic solvent or mixture
Description: In general, a solution of the concentrate can be prepared by combining a dispersant such as polyvinylpyrrolidone C-30 and a selected organic solvent such as propylene glycol into a beaker. The mixture is continuously stirred until completely dissolved. Solid PVP or other solution components may take 1-2 hours to dissolve completely at room temperature.
An amount of an indolocarbazole, for example, staurosporine, K-252a, or any one of indolocarbazole A, B, or C (Table 1) can each be individually weighed and added to a small aliquot of the aqueous solution, resulting in a 10 mg/ml solution after the indolocarbazole completely dissolves. Alternatively, a mixture of indolocarbazoles may be combined, weighed, and added to a small aliquot of the aqueous solution resulting in a 10 mg/ml solution after the indolocarbazole completely dissolves. An indolocarbazole solution can be stirred or shaken vigorously overnight. Any undissolved indolocarbazole is removed by standard centrifugation or filtration techniques. The concentration of solubilized indolocarbazole can be determined by reversed phase HPLC using a UV detector (290 nm).
The following HPLC conditions are used to determine the concentration of an indolocarbazole:
HPLC Column: Zorbax Rx C-18 4.6×250 mm, 5 micron particle size
Prior to injection of an indolocarbazole solution, there is allowed a 10 minute equilibration time.
Fifty g of PEG-400 were added to 50 ml of water and the mixture vigorously stirred until completely dissolved. One mg of either K-252a, staurosporine or the indolocarbazoles B or C (see Table 1) were added individually to a 100 μl aliquot of the PEG-400 solution and the resulting mixture was shaken overnight. The solution was clarified by centrifugation at 1000 rpm for 10 minutes. The supernatant was saved and any residue discarded. Ten μl of the supernatant was removed, diluted with DMSO (100:1) and the concentration of dissolved K-252a determined by HPLC.
Same as example 1 except that PEG-600 was used instead of PEG-400.
Same as example 1 except that PEG-1000 was used instead of PEG-400.
Same as example 1 except that 48 ml of water was used and 2 g of benzyl alcohol was added to the PEG-400 solution.
Same as example 2 except that 48 ml of water was used and 2 g of benzyl alcohol was added to the PEG-600 solution.
Same as example 3 except that 48 ml of water was used and 2 g of benzyl alcohol was added to the PEG-1000 solution.
2.5 g of benzyl alcohol was added to 47.5 g of PEG-400 and, in a separate container, 2.5 g of Pluronic F68 was added to 47.5 ml of water. Each solution was stirred until completely dissolved, then each solution was combined and stirred until homogeneous. One mg of K-252a was added to 100 μl of the solution and the resulting mixture was shaken overnight. The solution was clarified by centrifugation at 1000 rpm for 10 minutes. Ten (10) μl of supernatant was removed, diluted with DMSO (100:1), and the concentration of dissolved K-252a determined by HPLC.
Same as example 7 except that Pluronic™ L61 was used instead of Pluronic™ F68.
Same as example 7 except that Pluronic™ L64 was used instead of Pluronic™ F68.
Same as example 7 except that Tween™ 20 was used instead of Pluronic™ F68.
Same as example 7 except that Tween™ 80 was used instead of Pluronic™ F68.
Same as example 7 except that PVP was used instead of Pluronic™ F68 and PEG-300 was used instead of PEG-400.
Same as example 12 except that PEG-400 was used instead of PEG-300 and indolocarbazoles A, B or C were each solubilized individually in addition to K-252a.
Same as example 12 except that PEG-600 was used instead of PEG-300 and indolocarbazoles A, B or C were each solubilized individually in addition to K-252
Same as example 12 except that PEG-1000 was used instead of PEG-300.
Ten (10) g of Triton X-100 was added to 38 ml of water and the mixture was stirred thoroughly.

[2] = cited from earlier work; for insolubility in water: Nakanishi et al.
[3] = Description: In a flask, 10 g of PVP (k value of 17) was added to 990 grams of propylene glycol. This mixture was stirred until the PVP was completely dissolved. Two hundred fifty (250) mg of compound A (Table 1) was added to 10 ml of the above solution and the mixture was stirred until compound A was completely dissolved. This solution is called Indolocarbazole Propylene Glycol Concentrate (IPGC).
To test for the stability of an indolocarbazole in this solution, 1 ml aliquots of IPGC were removed and placed in small amber colored vials and kept at 4° C room temperature (about 25° C.), 37° C, and 60° C for 4, 7, 14 and 30 days. The sample at 4° C was kept in a refrigerator and received light when a door was opened. The sample at room temperature was placed on the laboratory bench and exposed to the fluorescent lights of the room during the day. The samples at 37° C and 60° C were kept in small incubators essentially in the dark. A 1 ml aliquot of the same IPGC was added to a clear vial and that vial was kept at 25° C in 300 foot candles of light for 4, 7, 14 and 30 days. At each interval of time, an aliquot of IPGC was removed from each vial, diluted 200 fold in DMSO and the concentration of compound A determined by reversed phase HPLC using a UV detector (290 nm).
In this example, compound A was further diluted in Indolocarbazole Diluent Solution. […]

[4] = 50% peg 400, 50% h2o, Concentration Obtained, Example 1: 50% PEG 400, 50% H2O, target 10 mg/ml
[5] = 50% peg 600, 50% h2o, Concentration Obtained, Example 2: 50% PEG 600, 50% H2O, target 10 mg/ml
[6] = 50% peg 1000, 50% h2o, Concentration Obtained, Example 3: 50% PEG 1000, 50% H2O, target 10 mg/ml
[7] = peg 400/ba/h2o, Concentration Obtained, Example 4: 50% PEG 400, 2% BA, 48% H2O, target 10 mg/ml
[8] = peg 600/ba/h2o, Concentration Obtained, Example 5: 50% PEG 600, 2% BA, 48% H2O, target 10 mg/ml
[9] = peg 600/ba/pvp/h2o, Concentration Obtained (saturation level), Example 22: 50% PEG 600, 2% BA, 10% PVP, 38% H2O, 10 mg added
[10] = peg 1000/ba/h2o, Concentration Obtained, Example 6: 50% PEG 1000, 2% BA, 48% H2O, target 10 mg/ml
[11] = peg 400/ba/pvp/h2o, Concentration Obtained
[12] = peg 600/ba/pvp/h2o, Concentration Obtained
[13] = peg 600/ba/pvp/h2o, Concentration Obtained (saturation level)
[14] = peg 1000/ba/pvp/h2o, Concentration Obtained

COC(=O)C1(O)CC2OC1(C)n1c3ccccc3c3c4c(c5c6cc(O)ccc6n2c5c31)C(=O)NC4 (centres unmarked) [Compound B]
solubility thermodynamic [1, 4]: 3.15 mg/mL (≈ 6.52 mM) | solubility thermodynamic [1, 5]: 2.68 mg/mL (≈ 5.54 mM) | solubility thermodynamic [1, 6]: 4.44 mg/mL (≈ 9.18 mM) | solubility thermodynamic [1, 7]: 3.26 mg/mL (≈ 6.74 mM) | solubility thermodynamic ([1]; peg 400/ba/pvp/h2o, Concentration Obtained, Example 13: 47.5% PEG 400, 2.5% BA, 2.5% PVP, 47.5% H2O, target 10 mg/ml): 10 mg/mL (≈ 20.7 mM) | solubility thermodynamic [1, 8]: 3.59 mg/mL (≈ 7.43 mM) | solubility thermodynamic ([1]; peg 600/ba/pvp/h2o, Concentration Obtained (saturation level), Example 20: 47.5% PEG 600, 2.5% BA, 2.5% PVP, 47.5% H2O, 10 mg added): 10 mg/mL (≈ 20.7 mM) | solubility thermodynamic [1, 9]: 16.4 mg/mL (≈ 33.9 mM) | solubility thermodynamic ([1]; peg 600/ba/pvp/h2o, Concentration Obtained, Example 14: 47.5% PEG 600, 2.5% BA, 2.5% PVP, 47.5% H2O, target 10 mg/ml): 10 mg/mL (≈ 20.7 mM) | solubility thermodynamic [1, 10]: 5.02 mg/mL (≈ 10.4 mM) | solubility thermodynamic ([1]; peg 1000/ba/pvp/h2o, Concentration Obtained, Example 19: 40% PEG 1000, 2% BA, 10% PVP, 48% H2O, target 10 mg/ml): 10 mg/mL (≈ 20.7 mM)

O=C1NCc2c1c1c3ccccc3[nH]c1c1[nH]c3ccccc3c21 [Compound K-252c]
insolubility in water [2]: insolubility | solubility in non-aqueous, toxic solvents [2]: soluble in non-aqueous, toxic solvents | solubility in water [2]: insoluble in water

CC[S+]([O-])Cc1ccc2c(c1)c1c3c(c4c5ccccc5n5c4c1n2C1CC(O)(C(=O)OC)C5(C)O1)CNC3=O (centres unmarked) [Compound C]
solubility thermodynamic ([1]; 50% peg 400, 50% h2o, Concentration Obtained): 0.75 mg/mL (≈ 1.34 mM) | solubility thermodynamic ([1]; 50% peg 600, 50% h2o, Concentration Obtained): 0.5 mg/mL (≈ 0.897 mM) | solubility thermodynamic ([1]; 50% peg 1000, 50% h2o, Concentration Obtained): 0.72 mg/mL (≈ 1.29 mM) | solubility thermodynamic ([1]; peg 400/ba/h2o, Concentration Obtained): 1.01 mg/mL (≈ 1.81 mM) | solubility thermodynamic [1, 11]: 4 mg/mL (≈ 7.17 mM) | solubility thermodynamic ([1]; peg 600/ba/h2o, Concentration Obtained): 0.89 mg/mL (≈ 1.6 mM) | solubility thermodynamic [1, 12]: 4.6 mg/mL (≈ 8.25 mM) | solubility thermodynamic [1, 13]: 4.6 mg/mL (≈ 8.25 mM) | solubility thermodynamic ([1]; peg 600/ba/triton x-100/h2o, Concentration Obtained): 4.63 mg/mL (≈ 8.3 mM) | solubility thermodynamic ([1]; peg 600/ba/tween 80/h2o, Concentration Obtained): 4.79 mg/mL (≈ 8.59 mM) | solubility thermodynamic ([1]; peg 1000/ba/h2o, Concentration Obtained): 0.8 mg/mL (≈ 1.43 mM) | solubility thermodynamic [1, 14]: 6 mg/mL (≈ 10.8 mM) | solubility thermodynamic ([1]; peg 1000/ba/pvp/h2o, Concentration Obtained (saturation level)): 5 mg/mL (≈ 8.97 mM)

COC1(CO)CC2OC1(C)n1c3ccccc3c3c4c(c5c6ccccc6n2c5c31)C(=O)NC4 (centres unmarked) [Compound A]
solubility thermodynamic [1, 11]: 10 mg/mL (≈ 22.1 mM) | solubility thermodynamic [1, 12]: 10 mg/mL (≈ 22.1 mM) | solubility thermodynamic [1, 13]: 40 mg/mL (≈ 88.2 mM) | solubility thermodynamic [1, 14]: 10 mg/mL (≈ 22.1 mM) | Stability of Compound A in IPGC ([3]; 0 min): 100% | loss of activity in IPGC ([3]; propylene glycol with pvp, 720 h): 13.3%

C[C@@H]1O[C@@H](n2c3ccccc3c3c4c(c5c6ccccc6[nH]c5c32)CNC4=O)[C@H](O)[C@H](O)[C@H]1O [Compound K-252d]
insolubility in water [2]: insolubility | solubility in non-aqueous, toxic solvents [2]: soluble in non-aqueous, toxic solvents | solubility in water [2]: insoluble in water

CC12OC(CC1(O)C(=O)O)n1c3ccccc3c3c4c(c5c6ccccc6n2c5c31)CNC4=O (centres unmarked) [Compound K-252b]
solubility in non-aqueous, toxic solvents [2]: soluble in non-aqueous, toxic solvents

CN[C@@H]1C[C@H]2O[C@@](C)([C@@H]1OC)n1c3ccccc3c3c4c(c5c6ccccc6n2c5c31)C(=O)NC4 [Staurosporine, staurosporine]
solubility thermodynamic [1, 4]: 0.71 mg/mL (≈ 1.52 mM) | solubility thermodynamic [1, 5]: 1.89 mg/mL (≈ 4.05 mM) | solubility thermodynamic [1, 6]: 1.65 mg/mL (≈ 3.54 mM) | solubility thermodynamic [1, 7]: 1.21 mg/mL (≈ 2.59 mM) | solubility thermodynamic [1, 8]: 1.89 mg/mL (≈ 4.05 mM) | solubility thermodynamic [1, 9]: 8.4 mg/mL (≈ 18 mM) | solubility thermodynamic ([1]; peg 600/ba/pvp/h2o, Concentration Obtained, Example 18: 50% PEG 600, 2% BA, 10% PVP, 38% H2O, target 10 mg/ml): 8.41 mg/mL (≈ 18 mM) | solubility thermodynamic ([1]; peg 600/ba/triton x-100/h2o, Concentration Obtained, Example 16: 50% PEG 600, 2% BA, 10% Triton X-100, 38% H2O, target 10 mg/ml): 7.59 mg/mL (≈ 16.3 mM) | solubility thermodynamic ([1]; peg 600/ba/tween 80/h2o, Concentration Obtained, Example 17: 50% PEG 600, 2% BA, 10% Tween 80, 38% H2O, target 10 mg/ml): 4.6 mg/mL (≈ 9.86 mM) | solubility thermodynamic [1, 10]: 1.68 mg/mL (≈ 3.6 mM)
